# Where two headings read alike, the source gives them in different places.
# Experiments:
# [1] = Zeta-potential measurement; assay type: physicochemical; details: for Zeta pot. / mV: 1 mg/mL in PBS pH 7.4 from 10 mg/mL DMSO stock, 1 d RT, 60 µL diluted in 600 µL 1 mM KCl, Zetasizer Nano ZS, Smoluchowski, mean of triplicate
# How it was run: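 Readout: zeta potential (mV) derived by Smoluchowski from measured electrophoretic mobility. Preformed aggregates (1 mg/mL peptide, PBS pH 7.4, RT for 1 d) were diluted into dilute KCl electrolyte (1 mM) shortly before analysis.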
# [2] = system: HIV-1 infection of TZM-bl cells; experiment: HIV-1 infectivity enhancement assay, β-galactosidase luminescence; assay type: cell-based; details: for Rel-EFC: infection relative to EF-C (QCKIKQIINMWQ = 1); for Log10 Infection Rel EFC: log10 of infection relative to EF-C; for Log Infectivity: Log10 infection relative to EF-C, TZM-bl cells, asymmetric std dev errors; for Log10 Infection Rel EF-C: HIV-1 infection of TZM-bl cells; for Log10 of Rel to EFC (Feb2021): Log10 of infection relative to EF-C, all peptides of FigS16; for Abs. Inf. / RLU s-1: absolute infection rate, peptide 1.3 µM on cells, virus preincubated 10 min with fibrils, read 3 days post infection, mean of triplicate; for Abs. Inf.: absolute infection signal, HIV-1 on TZM-bl cells, β-galactosidase luminescence; for Log10 Inf. rel. to EF-C: log10 of HIV-1 infection of TZM-bl cells relative to EF-C (EF-C = 0)
# [3] = Turbidity, derived count rate of scattered light; assay type: physicochemical; details: for Count Rate / kcps: derived count rate of scattered light at 633 nm, 173°, from zeta-potential measurement, 0.1 mg/mL in 1 mM KCl after 1 d at 1 mg/mL in PBS, turbidity / microscopic aggregation, mean of triplicate
# How it was run: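 Samples: 1 mg/mL in PBS pH 7.4 (from DMSO), 1 d at RT, then diluted in 1 mM KCl immediately before measurement. Triplicates, two independent runs averaged.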
# [4] = β-sheet content by ATR-FT-IR; assay type: physicochemical; details: for b -sheet / %: Fig. S7 panel A, β-sheet content by ATR-FT-IR; for ß-sheet / %: ATR-FT-IR of lyophilised 1 mg/mL PNF solution, peak integral ratio 1625-1635 cm-1, measured once
# How it was run: (§1)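 In the conversion assay, unconverted peptide passing a 3 kDa membrane at 4 °C was labelled with fluorescamine alongside unfiltered PNF, both in DMSO, and read at 365/470 nm after 20 min at room temperature. β-sheet content relied on ATR FT-IR of lyophilized fibril powder.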
# [5] = Conversion rate (CR) assay with fluorescamine; assay type: physicochemical; set-up: key to CR: % = 100−100×filtrate/original fluorescence intensity
# How it was run: as §1
# [6] = zeta potential of peptide assemblies
# [7] = zeta-potential of peptide, source data of Figure 2C
# [8] = zeta-potential of the peptide assemblies, mean, Figure 3A source data
# [9] = Fig. S7 panel A (plotted against β-sheet content)
# [10] = Fig. S7 panel B (plotted against CR), rounded to two decimals
# [11] = Log10 of infection rate relative to EF-C, Figure 3A source data
# [12] = infection rate relative to EF-C, log10, data of Figure 2D
# [13] = infection rate relative to EF-C, log10, source data of Figure 2C
# [14] = Log10 of derived count rate of scattered light (turbidity)
# [15] = log10 of derived count rate of scattered light (turbidity)
# [16] = turbidity, Log10 of derived count rate of scattered light, Figure 3A source data
# [17] = Fig. S7 panel B, conversion rate, fluorescamine assay
# [18] = conversion rate, fluorescamine assay
# [19] = HIV-1 infection relative to EF-C, Fig 23 plot, panels A and B, mean of 3 values
# [20] = HIV-1 infection relative to EF-C, Fig 23 plot, single data point, replicate 1
# [21] = HIV-1 infection relative to EF-C, Fig 23 plot, single data point, replicate 2
# [22] = HIV-1 infection relative to EF-C, Fig 23 plot, single data point, replicate 3
# [23] = n-fold infection vs virus only, relative to that of EF-C, 1.3 µM peptide
# [24] = logarithm of count rate in kcps
# [25] = turbidity, log10 of derived count rate of scattered light
# [26] = conversion of monomer to nanostructures, 3 kDa MWCO filtration, fluorescamine, ex 365 / em 470 nm, triplicate
Substance,"Zeta-Potential / mV [1, 7] [mV]","Zeta-Potential / mV [1, 8] [mV]",Rel-EFC ([2]; 1.3 µM peptide),Log10 Infection Rel EFC ([2]; 1.3 µM peptide),"Log Infectivity [2, 9]","Log Infectivity [2, 10]","Log10 Infection Rel EF-C [2, 11]","Log10 Infection Rel EF-C [2, 12]","Log10 Infection Rel EF-C [2, 13]",Log10 of Rel to EFC (Feb2021) [2],"Log10 Count Rate [3, 14]",Count Rate / kcps [3] [kcps],"Log10 Count Rate [3, 16]",b -sheet / % [4] [%],"CR / % [5, 17] [%]","CR [5, 18]",Zeta-Pot. [1],Abs. Inf. [2],"Log10 Count Rate [3, 25]",Log10 Inf. rel. to EF-C [2],further results
KIKIQIII,19.13,19.8,"0,35","-0,45",-0.4521,-0.45,-0.45,-0.4521,-0.4521,-0.45,1.978,95,1.978,45.8425,87,87,–,–,–,–,"Zeta-Pot. [1, 6]: 19.8; Log10 Count Rate [3, 15]: 1.978"
KIKQII,-6.459,-12.67,0,"-2,31",-2.308,-2.31,-2.31,-2.308,-2.308,–,2.086,122,2.086,38.67,13,12.97,–,–,–,–,"Zeta-Pot. [1, 6]: -12.67; Log10 Count Rate [3, 15]: 2.086"
QCKAKAQANM,-4.641,-8.36,"0,01","-1,83",-1.835,-1.83,-1.83,-1.835,-1.835,–,2.31,204,2.31,35.27,55.9,55.94,-8.357,563.3,2.31,–,"Zeta pot. / mV [1]: -8.4 mV; Inf. rel. EF-C [2, 19]: 0.02465; Inf. rel. EF-C [2, 20]: 0.03504; Inf. rel. EF-C [2, 21]: 0.01727; Inf. rel. EF-C [2, 22]: 0.02164; Abs. Inf. / RLU s-1 [2]: 563 RLU s-1; Inf. rel. EF-C [2, 23]: 0.01; Log10 Count Rate [3, 24]: 2.3; ß-sheet / % [4]: 35%; CR / % [5, 26]: 56%"
QCKAKAQANMWQ,-4.813,-8.05,"0,07","-1,14",-1.144,-1.14,-1.14,-1.144,-1.144,–,2.631,428,2.631,32.8999,89.3,89.28,-8.05,2767,2.631,-1.144,"Zeta pot. / mV [1]: -8.1 mV; Inf. rel. EF-C [2, 19]: 0.1207; Inf. rel. EF-C [2, 20]: 0.1632; Inf. rel. EF-C [2, 21]: 0.09951; Inf. rel. EF-C [2, 22]: 0.09928; Abs. Inf. / RLU s-1 [2]: 2767 RLU s-1; Inf. rel. EF-C [2, 23]: 0.07; Log10 Count Rate [3, 24]: 2.6; ß-sheet / % [4]: 33%; CR / % [5, 26]: 89%"
QCKFKQFFNM,15.12,13.67,"0,43","-0,37",-0.3706,-0.37,-0.37,-0.3706,-0.3706,-0.37,4.016,10385,4.016,41.8396,98.7,98.67,13.67,5847,4.016,-0.3706,–
QCKFKQFFNMWQ,11.04,9.59,"0,01","-2,18",-0.6059,-0.61,-0.61,-0.6059,-0.61,-0.61,4.277,18911,4.277,41.78,98.7,98.72,9.587,30896.66667,4.277,-0.6059,–
QCKIKIQINM,11.15,11.37,"0,4","-0,4",-0.4024,-0.4,-0.4,-0.4024,-0.4024,-0.4,3.979,9524,3.979,37.11,89.7,89.7,11.37,15250,3.979,-0.4024,–

# Source: PMC10447463, “Data-mining unveils structure–property–activity correlation of viral infectivity enhancing self-assembling peptides” (Nature Communications, 2023)
